Among the data in ChEMBL document CHEMBL3400061, “Structure-activity relationships of IKM-159: Diverted synthesis and biological evaluation of a series of C5-oxy analogs” (Bioorg Med Chem Lett, 2015) are Activity values, retold here.

What all share (type): functional, organism-based
Experiment [1] concerns Mus musculus. Briefly: Effect on behavior in ddY mouse at 100 ug, icv.
The test system of experiment [2] is Mus musculus. Briefly: Induction of loss of body flaccidness in ddY mouse at 100 ug, icv.
Experiment [3] concerns Mus musculus. Briefly: Induction of loss of body motion in ddY mouse at 100 ug, icv.
For experiment [4], the system named is Mus musculus. Description: Suppression of voluntary movements in ddY mouse at 100 ug, icv.

Structures are written as SMILES. Active and inactive are the calls of the source. The calls are words filed in the database; no cut-off is given here.

With `O=C(O)C[C@@]12O[C@H]3CC(=O)O[C@H]3[C@@H]1C(=O)N[C@H]2C(=O)O`, in experiment [1], the result was inactive.

Regarding `O=C(O)C[C@@]12O[C@H]3C=CCN[C@H]3[C@@H]1C(=O)N[C@H]2C(=O)O`, the outcome in experiment [2] and in experiment [3] was Active.

On to `O=C(O)C[C@@]12O[C@H]3C=CC(=O)O[C@H]3[C@@H]1C(=O)N[C@H]2C(=O)O`, for which the outcome in experiment [1] was inactive.

In the case of `O=C(O)C[C@@]12O[C@H]3C=CCO[C@H]3[C@@H]1C(=O)N[C@H]2C(=O)O`, in experiment [4], the outcome was Active.

As for `C=C[C@@H]1O[C@@]2(CC(=O)O)[C@H](C(=O)O)NC(=O)[C@H]2[C@@H]1O`, in experiment [1], the result was inactive.
